This note sets out measurements from patent publication US5045548A, “Quinolyl methoxy compounds and their use as antiasthmatic agents” (Fujisawa Pharmaceutical Company, Ltd., priority 1987, dated 1991).

The test system of assay [1] is SRS-A (Slow Reacting Substance of Anaphylaxis) synthesis in rat polymorpholeukocyte (PMN). The assay is described as follows: Inhibitory Activity of SRS-A synthesis in rat polymorpholeukocyte (PMN) using the calcium ionophore A23187 (i-LTC4 by radioimmunoassay). The conditions noted are these: Rattus norvegicus, 0.25 h, 10 μM A23187, 15 min, 37° C. The format is cell-based, rat (male Sprague-Dawley). The procedure:
Test I: Inhibitory Activity of SRS-A (Slow Reacting Substance of Anaphylaxis) synthesis in rat polymorpholeukocyte (PMN) of using the calcium ionophore Male Sprague-Dawley rats weighing 250-300 g were anesthetized with ether and each was injected intraperitoneally with 20 ml of 0.1% clycogen (from Oyster). After 20 hours the rats were sacrificed and PMN were recovered in rinse of the peritoneal cavity with 10 ml Dulbeccos PBS (components in g/L: CaCl2 0.1, KH2 PO4 0.2, MgCl2.6H2 O 0.1, NaCl 8.0, Na2 HPO4.7H2 O 2.16; pH7.4). These rinses were filtered through nylon wool filter and centrifuged for 5 min at 1000 xg. The pellet was suspended in Dulbeccos PBS and centrifuged for 5 min at 1000 xg. The pellet was resuspended in Dulbeccos PBS and adjusted the cell concentration to 10^7 cells/ml with Dulbeccos PBS. Samples were dissolved in ethanol and dispersed in Dulbeccos PBS to give a concentration of 10^-10 -10^-5 M Antibiotic A23187; calcium ionophor ([…] Diagnostics) (hereinafter referred to A23187) in DMSO(10mM) was diluted with Dulbeccos PBS to give the concentration of 1 mM. Aliquots of the cell suspension (1×10^7 cells/ml, 0.98 ml) were equilibrated for 30 min at 37° C. Solution of sample(10 μl) was added and incubated for 15 min at 37° C. before the addition of 10 μl of A23187 solution. Thus the final incubation volume of 1 ml contained approximately 1×10^7 cells, 10^-10 -10^-5 M samples and 10 μM A23187. Incubation with A23187 were continued for 15 min at 37° C. The reactions were terminated by setting the assay tubes in ice bath to chill as rapidly as possible to 4° C. The test tubes were centrifuged at 1500 xg for 5 min at 4° C. and decanted the supernatants into the tubes and kept cold prior to assaying. The concentration of i-LTC4 in the cell-free supernatants from the incubations were determined by specific radioimmunoassay. The mean values of i-LTC4 (these incubations were carried out in duplicate) of each sample were calculated and the effect of samples on the synthesis of the leukotrienes was presented as a percentage of the value in the absence of samples.

Assay [2] has as its system Intimal Thickening of Rabbit Carotid Artery. Briefly: Antiatherosclerotic activity: cuff-induced intimal thickening of rabbit carotid artery. The format is in vivo, rabbit (male Japanese white). To be noted: i.m.; for Intimal thickening index: once a day, 3 weeks, mean ± SE (n = 8). The text has this: Induction of Intimal Thickening of Rabbit Carotid Artery
Forty male Japanese white rabbits weighing about 2 kg were used for the test of the compound of Example 40. They were divided into 5 groups of 8 animals: one served as control, and the other 4 as drug dose groups. The rabbits were anesthetized with care not to injure the surrounding tissues. A polyetherylene cuff (1.5 cm long, 2.15 mm inner diameter, 3.25 mm outer diameter) was placed around the artery. The rabbits were maintained for 3 weeks on standard laboratory diet and water ad libitum. The compound of Example 40 and the vehicle (0.5%, w/v methyl cellulose in saline) were given intramuscularly once a day starting from the day of cuff-placement. At the end of the 3rd week, the rabbits were heparinized (500, i.v.), and the artery was removed, washed free of blood with saline, fixed by immersion in 10% formalin and divided into 8 cross-segments about 2 mm long. The segments were embedded in paraffin and cut into transverse sections. These sections were stained with orecin. About 70 transverse sections were prepared form each artery and used for the quantitation of the initimal thickening.
Quantitation of Intimal Thickening (Intimal Thickening Index)
The arterial sections were observed by light microscopy and the intimal thickening was scored as follows. 0=no thickening; 1=slight hyperplasia in the subendothelial space with intima media ratio of about 1/10; 2=several layers of cells in the subendothelial space with intima media ratio of about 1/5, or parts of the subendothelial space with more hyperplasia; 3=sever hyperplasia throughout the subendothelial space with intima media ratio of more than 1/3.

The subject of assay [3] is CDE-induced pancreatitis in mice. The assay is described as follows: Effect on experimental pancreatitis in mice (CDE diet-induced, lethal). The format is in vivo, mouse (female ICR). The conditions noted are these: for % survival: orally two times a day for 4 days, N = 20, control 15. The text has this:
Test III: Effect on experimental pancreatitis in mice
The effect of 5-lipoxygenase inhibitor, the compound of Example 40 was studied in a lethal form of pancreatitis induced by feeding mice an ehionine-supplemented choline-deficient diet (CDE diet).
Female ICR mice, aged 3 wk were used in this study. All mice were fed a regular laboratory diet before the experiments. The CDE diet was then substituted for 2 days, and after this period replaced by the regular diet for an additional 6 days.
The compound of Example 40 was administered orally two times a day for 4 days after the beginning of the CDE diet.

Setting [4] is: 0.1 mg/kg, P < 0.01 compared with vehicle control.
Where [5] appears, read: 10 mg/kg, P < 0.01 compared with vehicle control.

Take `CCCCC1(CCCC)CCc2c(OCc3ccc4ccccc4n3)cccc2C1O` (single isomer, unassigned; (+)) [Example 40, (+)-2,2-dibutyl-5-(2-quinolylmethoxy)-1,2,3,4-tetrahydro-1-naphthol]: in assay [1], the half-maximal inhibitory concentration (IC50) (in general, the point on the concentration scale where inhibition reaches its midpoint) was 6.5 nM. In addition, the “Intimal thickening index, percentage versus the mean value of vehicle control” value is recorded as 90.1% in assay [2] (0.01 mg/kg), 50.4% in assay [2] (setting [4]), 65.9% in assay [2] (1.0 mg/kg) and 42.5% in assay [2] (setting [5]). Besides, the Intimal thickening index turned out to be 1.27 ± 0.17 in assay [2] (0.01 mg/kg), 0.71 ± 0.16 in assay [2] (setting [4]), 0.93 ± 0.31 in assay [2] (1.0 mg/kg) and 0.60±0.21 in assay [2] (setting [5]). Besides, in assay [2] (0.01-10 mg/kg), the “inhibition of cuff-induced intimal thickening (in words)” value is “dose-dependently inhibited cuff-induced intimal thickening”. Besides, in assay [2] (10 mg/kg), the “inhibitory activity on intimal thickening (in words)” value is “exerted significant inhibitory activity”. For the same molecule, the “% survival” value was 10% in assay [3] (10 mg/kg), 35% in assay [3] (32 mg/kg) and 85% in assay [3] (100 mg/kg). Also, in assay [3] (orally, 10-100 mg/kg), the “prevention of CDE-induced pancreatitis (in words)” value was “prevented the CDE-induced pancreatitis in a dose-dependent manner”.
